Consider 51 compounds from patent US10899747B2, “Biaryl piperidine amide compounds and methods of use thereof” (Athenex, Inc., priority 2017, dated 2021).

Some results are limits rather than exact numbers.

The first assay concerns IL-2. Nature of the assay: PHA-IL2 (cell activation and cytokine analysis). It counts as cell-based. As to conditions: 50% inhibition concentration class. Put shortly: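 Cells were seeded in 96-well plates at 1.0-2.0×10^6 cells/ml in 150 ul of RPMI containing 0.5% fetal calf serum. Test compounds, at up to ≤20 uM, were preincubated with the cells for 30 minutes, then phytohemagglutinin (PHA) was added and cultures were stimulated for 24-48 hours at 37 degrees C./5% CO2. Supernatant IL-2 was then quantified by standard ELISA.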
`C#CCOc1ccc(C(=O)c2ccc(-c3ccccc3OCC(=O)N3CCC(CCc4cccc(OC(C)C)c4)CC3)cc2)cc1` [Compound 419]: the IC50 lay within 1 to 10 µM. The same measure, in the same setting: to `N#Cc1ccc(-c2cc(C#N)ccc2OCC(=O)N2CCC(CCc3ccc4c(c3)OCO4)CC2)cc1` [Compound 420] belongs less than 1 µM.

Compound `CC(C)Oc1cccc(CCC2CCN(C(=O)COc3ccccc3-c3ccc(C(=O)c4ccc(O)cc4)cc3)CC2)c1` [Compound 421] showed an IC50 of 1 to 10 µM. In turn, `Cc1ccc(-c2ccccc2OCC(=O)N2CCC(CCc3ccccc3)CC2)nn1` [Compound 422] returned an IC50 of less than 1 µM.

Take `O=C(COc1ccccc1-c1cnccn1)N1CCC(CCc2ccccc2)CC1` [Compound 423]: the IC50 was 1 to 10 µM. `Cc1cnc(-c2ccccc2OCC(=O)N2CCC(CCc3ccccc3)CC2)cn1` [Compound 424] yielded an IC50 of 1 to 10 µM. Still for that read-out and setting: to `Cc1cnc(C#CC2CCN(C(=O)COc3ccc(C#N)cc3-c3ccc(C#N)cc3)CC2)cn1` [Compound 425] belongs 1 to 10 µM; to `Cc1cnc(CCC2CCN(C(=O)COc3ccc(C#N)cc3-c3ccc(C#N)cc3)CC2)cn1` [Compound 426], 1 to 10 µM. In turn, `CC(C)Oc1ccccc1CCC1CCN(C(=O)COc2ccccc2-c2ccc(C#N)cc2)CC1` [Compound 427] returned an IC50 of less than 1 µM. Still for that read-out and setting: to `Cc1ccc(C#CC2CCN(C(=O)COc3ccc(C#N)cc3-c3ccc(C#N)cc3)CC2)nn1` [Compound 428] belongs 1 to 10 µM; to `N#Cc1ccc(-c2cc(C#N)ccc2OCC(=O)N2CCC(C#Cc3cnccn3)CC2)cc1` [Compound 429], 1 to 10 µM; to `CC(C)Oc1ccc(CCC2CCN(C(=O)COc3ccccc3-c3ccc(C#N)cc3)CC2)cc1` [Compound 430], less than 1 µM. Same read-out and setting: to `CC(C)Oc1ccccc1CCC1CCN(C(=O)COc2ccccc2-c2ccc(F)cc2O)CC1` [Compound 431] belongs less than 1 µM; to `CC(C)Oc1ccc(CCC2CCN(C(=O)COc3ccccc3-c3ccc(F)cc3O)CC2)cc1` [Compound 432], less than 1 µM.

As to `Cc1nc2cc(-c3ccccc3OCC(=O)N3CCC(CCc4ccc(OC(C)C)cc4)CC3)ccc2[nH]1` [Compound 433], the IC50 is less than 1 µM. On the same count and under the same terms, to `N#Cc1ccc(-c2ccccc2OCC(=O)N2CCC(CCc3cccc(OC(F)F)c3)CC2)cc1` [Compound 434] belongs less than 1 µM; to `O=C(COc1ccccc1-c1ccc(F)cc1O)N1CCC(CCc2cccc(OC(F)F)c2)CC1` [Compound 435], less than 1 µM. Turning to `N#Cc1ccc(-c2cc(C#N)ccc2OCC(=O)N2CCC(CCc3cccc(OC(F)F)c3)CC2)cc1` [Compound 436], the IC50 was less than 1 µM. For the compound `N#Cc1ccc(OCC(=O)N2CCC(CCc3cccc(OC(F)F)c3)CC2)c(-c2ccc(F)cc2O)c1` [Compound 437], the concentration for half-maximal inhibition (IC50) was less than 1 µM. The same measure, in the same setting: to `CC(C)Oc1cccc(CCC2CCN(C(=O)COc3ccccc3-c3cc(C#N)ccc3OCc3ccccc3)CC2)c1` [Compound 440] belongs less than 1 µM.

As for `CC(C)Oc1cccc(CCC2CCN(C(=O)COc3ccccc3-c3cc(C#N)ccc3O)CC2)c1` [Compound 441], the IC50 is less than 1 µM.

Take `CC(C)Oc1cccc(CCC2CCN(C(=O)COc3ccccc3-c3ccc(C#N)cc3OCc3ccccc3)CC2)c1` [Compound 442]: the IC50 was less than 1 µM. Still for that read-out and setting: to `CC(C)Oc1cccc(CCC2CCN(C(=O)COc3ccccc3-c3ccc(C#N)cc3O)CC2)c1` [Compound 443] belongs less than 1 µM.

The test system of another assay is NFAT. Nature of the assay: TCR-NFAT (luciferase-based reporter assay). It counts as cell-based. As to conditions: Homo sapiens; 50% inhibition concentration class. As to the method:
Jurkat T cells are transiently transfected with a DNA plasmid encoding Firefly luciferase under the transcriptional control of an appropriate regulatory element that may include multimerized NFAT, AP-1, NFκB, or CREB binding sites. Cells are co-transfected with a DNA plasmid encoding Renilla luciferase under the transcriptional control of a constitutive regulatory element (e.g., HSV-TK promoter). 24 hours following transfection, cells are collected and re-seeded in 96-well plates at a final density of 1.0×10^6 cells/ml in 150 ul assay medium. Test compounds may be included at a final concentration of ≤20 uM and generally pre-incubated with cells for 30 minutes prior to stimulation. An appropriate stimulus is added, including but not limited to, a) phorbol myristate acetate (PMA) and ionomycin, or b) stimulatory antibodies to the TCR complex (e.g., anti-CD3ε) and CD28. Cell cultures are stimulated for 4-6 hours in a humidified incubator (37 degrees C./5% CO2). Cells are than lysed and the level of Firefly luciferase and Renilla Luciferase activity is determined using a standard assay (e.g., Promega's Dual Luciferase Reporter Assay System) and plate-reading luminometer. The ratio obtained by dividing activation induced Firefly luciferase activity by the constitutive Renilla luciferase activity is calculated and used as a quantitative measurement of cell activation.
Jurkat T cells were transiently transfected with a DNA plasmid encoding Firefly luciferase under the transcriptional control of an appropriate regulatory element that may include multimerized NFAT, AP-1, NFκB, or CREB binding sites. Cells were co-transfected with a DNA plasmid encoding Renilla luciferase under the transcriptional control of a constitutive regulatory element (e.g., HSV-TK promoter). 24 hours following transfection, cells were collected and re-seeded in 96-well plates at a final density of 1.0×10^6 cells/ml in 150 ul assay medium. Compound 413 was included at a final concentration of ≤20 uM and pre-incubated with cells for 30 minutes prior to stimulation. Mitogens PMA and ionomycin were added. Cell cultures were stimulated for 4-6 hours in a humidified incubator (37° C./5% CO2). Cells were then lysed and the level of Firefly luciferase and Renilla Luciferase activity was determined using a standard assay (e.g., Promega's Dual Luciferase Reporter Assay System) and plate-reading luminometer. The ratio obtained by dividing activation induced Firefly luciferase activity by the constitutive Renilla luciferase activity was calculated and used as a quantitative measurement of cell activation.
In turn, `O=C(NCc1ccccn1)c1ccc(CCC2CCN(C(=O)COc3ccccc3-c3ccccc3)CC2)cc1` [Compound 102] yielded an IC50 of 1 to 10 µM. Still for that read-out and setting: to `O=C(NCc1cccnc1)c1ccc(CCC2CCN(C(=O)COc3ccccc3-c3ccccc3)CC2)cc1` [Compound 103] belongs 1 to 10 µM; to `O=C(NCc1ccncc1)c1ccc(CCC2CCN(C(=O)COc3ccccc3-c3ccccc3)CC2)cc1` [Compound 104], 1 to 10 µM; to `O=C(COc1ccccc1-c1ccccc1)N1CCC(CCc2cc(F)cc(F)c2)CC1` [Compound 106], 1 to 10 µM. Still for that read-out and setting: to `O=C(COc1ccccc1-c1ccccc1)N1CCC(CCc2ccc(F)cc2)CC1` [Compound 107] belongs 10 to 50 µM; to `COc1ccc(CCC2CCN(C(=O)COc3ccccc3-c3ccccc3)CC2)cc1` [Compound 108], 1 to 10 µM; to `COc1ccc(CCC2CCN(C(=O)COc3ccccc3-c3ccccc3)CC2)cc1OC` [Compound 109], 1 to 10 µM.

In the case of `O=C(O)c1ccc(CCC2CCN(C(=O)COc3ccccc3-c3ccccc3)CC2)cc1` [Compound 110], the 50% inhibitory concentration (IC50) fell in the range of 10 to 50 µM.

For the compound `O=C(COc1ccccc1-c1ccccc1)N1CCC(CCc2ccc(N3CCOCC3)cc2)CC1` [Compound 112], the half-inhibitory concentration (IC50) was in the range of 1 to 10 µM. Same read-out and setting: to `Cc1ccc(F)cc1CCC1CCN(C(=O)COc2ccccc2-c2ccccc2)CC1` [Compound 113] belongs 1 to 10 µM; to `O=C(COc1ccccc1-c1ccccc1)N1CCC(CCc2ccc(OC(F)(F)F)cc2)CC1` [Compound 115], 1 to 10 µM. With `Cc1cc(OC(F)(F)F)ccc1CCC1CCN(C(=O)COc2ccccc2-c2ccccc2)CC1` [Compound 116], the IC50 was in the range of 10 to 50 µM. Same read-out and setting: to `COc1ccc(CCC2CCN(C(=O)COc3ccccc3-c3ccccc3)CC2)c(OC)c1` [Compound 119] belongs 1 to 10 µM; to `O=C(COc1ccccc1-c1ccccc1)N1CCC(CCc2ccc(F)c(C(F)(F)F)c2)CC1` [Compound 121], 10 to 50 µM; to `O=C(COc1ccccc1-c1ccccc1)N1CCC(CCc2ccccc2OC(F)(F)F)CC1` [Compound 122], 10 to 50 µM. The same measure, in the same setting: to `O=C(COc1ccccc1-c1ccccc1)N1CCC(CCc2cc(F)ccc2F)CC1` [Compound 123] belongs 10 to 50 µM; to `COc1ccc(CO)cc1CCC1CCN(C(=O)COc2ccccc2-c2ccccc2)CC1` [Compound 125], 10 to 50 µM; to `O=C(COc1ccccc1-c1ccccc1)N1CCC(CCc2cccc(C(F)(F)F)c2)CC1` [Compound 127], 10 to 50 µM. In the case of `COc1cccc(CCC2CCN(C(=O)COc3ccccc3-c3ccccc3)CC2)c1` [Compound 128], the IC50 was in the range of 10 to 50 µM. Still for that read-out and setting: to `CCOc1ccc(CCC2CCN(C(=O)COc3ccccc3-c3ccccc3)CC2)cc1` [Compound 129] belongs 10 to 50 µM; to `O=C(COc1ccccc1-c1ccccc1)N1CCC(CCc2cccc(F)c2)CC1` [Compound 130], 10 to 50 µM. The same measure, in the same setting: to `O=C(COc1ccccc1-c1ccccc1)N1CCC(CCc2cccc(CO)c2)CC1` [Compound 131] belongs 10 to 50 µM; to `O=C(CCc1cc2c(cc1-c1ccccc1)OCO2)N1CCC(CCc2ccc(O)cc2)CC1` [Compound 132], 10 to 50 µM. In turn, `COc1ccc(CCC2CCN(C(=O)COc3c(F)cccc3-c3ccccc3)CC2)cc1OC` [Compound 133] yielded an IC50 of 10 to 50 µM.

In the case of `COc1ccc(CCC2CCN(C(=O)COc3c(F)cccc3-c3ccccc3)CC2)cc1` [Compound 134], the IC50 is 10 to 50 µM. Same read-out and setting: to `O=C(COc1c(F)cccc1-c1ccccc1)N1CCC(CCc2cc(F)cc(F)c2)CC1` [Compound 135] belongs 10 to 50 µM; to `O=C(COc1c(F)cccc1-c1ccccc1)N1CCC(CCc2ccc(F)cc2)CC1` [Compound 136], 10 to 50 µM. For `O=C(COc1cc(F)c(F)cc1-c1ccccc1)N1CCC(CCc2ccc(F)cc2)CC1` [Compound 137], the concentration for half-maximal inhibition (IC50) lay in the range of 10 to 50 µM.
